How the values were obtained:
[1] = (§1) The drug is tested on Z-028 corresponding to mouse gut metagenome with ENA study accession number: PRJEB37062 and ENA sample accession number: ERS12561827 for biotransformation under anaerobic condition. The drug concentrations were measured over 9 timepoints collected between 0 and 24 hours of incubation by liquid-chromatography-coupled mass spectrometry (LC–MS); details: 2 µM
[2] = as §1, with “Z-026” for “Z-028”, “to” for “to mouse gut”, “ERS12561825” for “ERS12561827”; details: 2 µM
[3] = as §1, with “Z-023” for “Z-028”, “to” for “to mouse gut”, “ERS12561822” for “ERS12561827”; details: 2 µM
[4] = as §1, with “Z-022” for “Z-028”, “ERS12561821” for “ERS12561827”; details: 2 µM
[5] = as §1, with “Z-021” for “Z-028”, “to” for “to mouse gut”, “ERS12561820” for “ERS12561827”; details: 2 µM
[6] = as §1, with “Z-016” for “Z-028”, “ERS12561815” for “ERS12561827”; details: 2 µM
[7] = as §1, with “Z-013” for “Z-028”, “rabbit” for “mouse”, “ERS12561813” for “ERS12561827”; details: 2 µM
[8] = as §1, with “Z-007” for “Z-028”, “rat” for “mouse”, “ERS12561807” for “ERS12561827”; details: 2 µM
[9] = as §1, with “Z-001” for “Z-028”, “ERS12561801” for “ERS12561827”; details: 2 µM
[10] = as §1, with “WLS-098” for “Z-028”, “human” for “mouse”, “ERS12561754” for “ERS12561827”; details: 2 µM
[11] = as §1, with “WLS-007” for “Z-028”, “human” for “mouse”, “ERS12561742” for “ERS12561827”; details: 2 µM
[12] = human gut metagenome, 24 h, 2 µM
[13] = human gut metagenome, 24 h, 2 µM; remark: listed apart in the source
[14] = human gut metagenome, 24 h, 2 µM; remark: listed apart in the source
[15] = human gut metagenome, 24 h, 2 µM; remark: listed apart in the source
[16] = human gut metagenome, 24 h, 2 µM; remark: listed apart in the source
[17] = human gut metagenome, 24 h, 2 µM; remark: listed apart in the source
[18] = human gut metagenome, 24 h, 2 µM; remark: listed apart in the source
[19] = human gut metagenome, 24 h, 2 µM; remark: listed apart in the source
[20] = human gut metagenome, 24 h, 2 µM; remark: listed apart in the source
Further: call rule not given here.

CN(C)C(=O)C(CCN1CCC(O)(c2ccc(Cl)cc2)CC1)(c1ccccc1)c1ccccc1 [LOPERAMIDE]
Bacterial Biotransformation [1]: Compound metabolized | Bacterial Biotransformation [2]: Compound NOT metabolized | Bacterial Biotransformation [3]: Compound metabolized | Bacterial Biotransformation [4]: Compound metabolized | Bacterial Biotransformation [5]: Compound NOT metabolized | Bacterial Biotransformation [6]: Compound metabolized | Bacterial Biotransformation [7]: Compound metabolized | Bacterial Biotransformation [8]: Compound NOT metabolized | Bacterial Biotransformation [9]: Compound metabolized | Bacterial Biotransformation [10]: Compound metabolized | Bacterial Biotransformation [11]: Compound metabolized | Bacterial Biotransformation [12]: Compound metabolized | Bacterial Biotransformation [13]: Compound metabolized | Bacterial Biotransformation [14]: Compound metabolized | Bacterial Biotransformation [15]: Compound metabolized | Bacterial Biotransformation [16]: Compound metabolized | Bacterial Biotransformation [17]: Compound metabolized | Bacterial Biotransformation [18]: Compound metabolized | Bacterial Biotransformation [19]: Compound metabolized | Bacterial Biotransformation [20]: Compound metabolized

CCCCc1nc(Cl)c(CO)n1Cc1ccc(-c2ccccc2-c2nn[nH]n2)cc1 [LOSARTAN]
Bacterial Biotransformation [1]: Compound NOT metabolized | Bacterial Biotransformation [2]: Compound NOT metabolized | Bacterial Biotransformation [3]: Compound metabolized | Bacterial Biotransformation [4]: Compound NOT metabolized | Bacterial Biotransformation [5]: Compound NOT metabolized | Bacterial Biotransformation [6]: Compound NOT metabolized | Bacterial Biotransformation [7]: Compound NOT metabolized | Bacterial Biotransformation [8]: Compound NOT metabolized | Bacterial Biotransformation [9]: Compound NOT metabolized | Bacterial Biotransformation [10]: Compound metabolized | Bacterial Biotransformation [11]: Compound metabolized | Bacterial Biotransformation [12]: Compound metabolized | Bacterial Biotransformation [13]: Compound metabolized | Bacterial Biotransformation [14]: Compound metabolized | Bacterial Biotransformation [15]: Compound metabolized | Bacterial Biotransformation [16]: Compound metabolized | Bacterial Biotransformation [17]: Compound metabolized | Bacterial Biotransformation [18]: Compound metabolized | Bacterial Biotransformation [19]: Compound metabolized | Bacterial Biotransformation [20]: Compound metabolized

COC(=O)Nc1nc2ccc(C(=O)c3ccccc3)cc2[nH]1 [MEBENDAZOLE]
Bacterial Biotransformation [1]: Compound NOT metabolized | Bacterial Biotransformation [2]: Compound NOT metabolized | Bacterial Biotransformation [3]: Compound metabolized | Bacterial Biotransformation [4]: Compound metabolized | Bacterial Biotransformation [5]: Compound metabolized | Bacterial Biotransformation [6]: Compound metabolized | Bacterial Biotransformation [7]: Compound metabolized | Bacterial Biotransformation [8]: Compound metabolized | Bacterial Biotransformation [9]: Compound metabolized | Bacterial Biotransformation [10]: Compound metabolized | Bacterial Biotransformation [11]: Compound metabolized | Bacterial Biotransformation [12]: Compound NOT metabolized | Bacterial Biotransformation [13]: Compound metabolized | Bacterial Biotransformation [14]: Compound metabolized | Bacterial Biotransformation [15]: Compound metabolized | Bacterial Biotransformation [16]: Compound NOT metabolized | Bacterial Biotransformation [17]: Compound metabolized | Bacterial Biotransformation [18]: Compound metabolized | Bacterial Biotransformation [19]: Compound metabolized | Bacterial Biotransformation [20]: Compound metabolized

COc1ccccc1OCC(O)COC(N)=O (stereo not given) [METHOCARBAMOL]
Bacterial Biotransformation [1]: Compound NOT metabolized | Bacterial Biotransformation [2]: Compound NOT metabolized | Bacterial Biotransformation [3]: Compound NOT metabolized | Bacterial Biotransformation [4]: Compound NOT metabolized | Bacterial Biotransformation [5]: Compound NOT metabolized | Bacterial Biotransformation [6]: Compound NOT metabolized | Bacterial Biotransformation [7]: Compound NOT metabolized | Bacterial Biotransformation [8]: Compound NOT metabolized | Bacterial Biotransformation [9]: Compound NOT metabolized | Bacterial Biotransformation [10]: Compound NOT metabolized | Bacterial Biotransformation [11]: Compound NOT metabolized | Bacterial Biotransformation [12]: Compound NOT metabolized | Bacterial Biotransformation [13]: Compound NOT metabolized | Bacterial Biotransformation [14]: Compound NOT metabolized | Bacterial Biotransformation [15]: Compound NOT metabolized | Bacterial Biotransformation [16]: Compound NOT metabolized | Bacterial Biotransformation [17]: Compound NOT metabolized | Bacterial Biotransformation [18]: Compound NOT metabolized | Bacterial Biotransformation [19]: Compound NOT metabolized | Bacterial Biotransformation [20]: Compound NOT metabolized

CC[C@@H](CO)NC(=O)[C@@H]1C=C2c3cccc4c3c(cn4C)C[C@H]2N(C)C1.O=C(O)/C=C\C(=O)O [METHYSERGIDE MALEATE]
Bacterial Biotransformation [1]: Compound NOT metabolized | Bacterial Biotransformation [2]: Compound NOT metabolized | Bacterial Biotransformation [3]: Compound NOT metabolized | Bacterial Biotransformation [4]: Compound NOT metabolized | Bacterial Biotransformation [5]: Compound NOT metabolized | Bacterial Biotransformation [6]: Compound NOT metabolized | Bacterial Biotransformation [7]: Compound NOT metabolized | Bacterial Biotransformation [8]: Compound NOT metabolized | Bacterial Biotransformation [9]: Compound NOT metabolized | Bacterial Biotransformation [10]: Compound NOT metabolized | Bacterial Biotransformation [11]: Compound NOT metabolized | Bacterial Biotransformation [12]: Compound NOT metabolized | Bacterial Biotransformation [13]: Compound NOT metabolized | Bacterial Biotransformation [14]: Compound NOT metabolized | Bacterial Biotransformation [15]: Compound NOT metabolized | Bacterial Biotransformation [16]: Compound NOT metabolized | Bacterial Biotransformation [17]: Compound NOT metabolized | Bacterial Biotransformation [18]: Compound NOT metabolized | Bacterial Biotransformation [19]: Compound NOT metabolized | Bacterial Biotransformation [20]: Compound NOT metabolized

CCN(CC)CCNC(=O)c1cc(Cl)c(N)cc1OC [METOCLOPRAMIDE]
Bacterial Biotransformation [1]: Compound NOT metabolized | Bacterial Biotransformation [2]: Compound NOT metabolized | Bacterial Biotransformation [3]: Compound NOT metabolized | Bacterial Biotransformation [4]: Compound NOT metabolized | Bacterial Biotransformation [5]: Compound NOT metabolized | Bacterial Biotransformation [6]: Compound NOT metabolized | Bacterial Biotransformation [7]: Compound NOT metabolized | Bacterial Biotransformation [8]: Compound NOT metabolized | Bacterial Biotransformation [9]: Compound NOT metabolized | Bacterial Biotransformation [10]: Compound NOT metabolized | Bacterial Biotransformation [11]: Compound NOT metabolized | Bacterial Biotransformation [12]: Compound NOT metabolized | Bacterial Biotransformation [13]: Compound NOT metabolized | Bacterial Biotransformation [14]: Compound NOT metabolized | Bacterial Biotransformation [15]: Compound NOT metabolized | Bacterial Biotransformation [16]: Compound NOT metabolized | Bacterial Biotransformation [17]: Compound NOT metabolized | Bacterial Biotransformation [18]: Compound NOT metabolized | Bacterial Biotransformation [19]: Compound NOT metabolized | Bacterial Biotransformation [20]: Compound NOT metabolized

Cc1ccccc1N1C(=O)c2cc(S(N)(=O)=O)c(Cl)cc2NC1C (stereo not given) [METOLAZONE]
Bacterial Biotransformation [1]: Compound NOT metabolized | Bacterial Biotransformation [2]: Compound metabolized | Bacterial Biotransformation [3]: Compound NOT metabolized | Bacterial Biotransformation [4]: Compound NOT metabolized | Bacterial Biotransformation [5]: Compound NOT metabolized | Bacterial Biotransformation [6]: Compound NOT metabolized | Bacterial Biotransformation [7]: Compound NOT metabolized | Bacterial Biotransformation [8]: Compound NOT metabolized | Bacterial Biotransformation [9]: Compound NOT metabolized | Bacterial Biotransformation [10]: Compound metabolized | Bacterial Biotransformation [11]: Compound NOT metabolized | Bacterial Biotransformation [12]: Compound NOT metabolized | Bacterial Biotransformation [13]: Compound NOT metabolized | Bacterial Biotransformation [14]: Compound NOT metabolized | Bacterial Biotransformation [15]: Compound NOT metabolized | Bacterial Biotransformation [16]: Compound metabolized | Bacterial Biotransformation [17]: Compound NOT metabolized | Bacterial Biotransformation [18]: Compound NOT metabolized | Bacterial Biotransformation [19]: Compound metabolized | Bacterial Biotransformation [20]: Compound metabolized

COCCc1ccc(OCC(O)CNC(C)C)cc1.COCCc1ccc(OCC(O)CNC(C)C)cc1.O=C(O)C(O)C(O)C(=O)O (stereo not given) [METOPROLOL TARTRATE]
Bacterial Biotransformation [1]: Compound NOT metabolized | Bacterial Biotransformation [2]: Compound NOT metabolized | Bacterial Biotransformation [3]: Compound NOT metabolized | Bacterial Biotransformation [4]: Compound NOT metabolized | Bacterial Biotransformation [5]: Compound NOT metabolized | Bacterial Biotransformation [6]: Compound NOT metabolized | Bacterial Biotransformation [7]: Compound NOT metabolized | Bacterial Biotransformation [8]: Compound NOT metabolized | Bacterial Biotransformation [9]: Compound NOT metabolized | Bacterial Biotransformation [10]: Compound metabolized | Bacterial Biotransformation [11]: Compound NOT metabolized | Bacterial Biotransformation [12]: Compound NOT metabolized | Bacterial Biotransformation [13]: Compound NOT metabolized | Bacterial Biotransformation [14]: Compound NOT metabolized | Bacterial Biotransformation [15]: Compound metabolized | Bacterial Biotransformation [16]: Compound metabolized | Bacterial Biotransformation [17]: Compound metabolized | Bacterial Biotransformation [18]: Compound NOT metabolized | Bacterial Biotransformation [19]: Compound NOT metabolized | Bacterial Biotransformation [20]: Compound metabolized
